{"source": "patent US20260355330A1", "about": "“CELL PENETRATING PEPTIDES AND USES THEREOF” (VECTIOPEP OÜ, priority 2022, published 2026)", "tested_on": "spleen cell subtypes (T cells, macrophages, dendritic cells, rest of the lymphocytes)", "assay": "Immunophenotyping the spleen cell subtypes post-transfection of mRNA with NF55 in vivo", "set-up": "species or system mice", "details": "in words; luciferase mRNA 30 μg, CR2, i.v., 16 h post-injection", "experimental": "FIG. 6: Reporter levels detected from spleen cells subtypes collected from NF55/mRNA treated mice. Reporter protein levels were evaluated from the sorted splenocytes: T cells, Macrophages, Dendritic cells and the rest of the lymphocytes. Results are shown as the fold change compared to untreated mice.\nTo analyse the cell subtypes that were transfected with the CPP, 30 μg of luciferase-encoding mRNA was complexed with the CPP at CR2 in water and injected i.v. 16 h post-injection, the spleens were collected into ice-cold dissociation buffer (1×PBS without Ca^2+ and Mg^2+ supplemented with 2 mM EDTA). Following gentle mechanical dissociation by grinding, splenic cells were strained with 100 μm cell strainer and centrifuged for 5 min at +4 °C, 300×g. A 2-minute incubation with 1 ml of RBC lysis buffer ACK (Thermo) was used for the red blood cell lysis. Flow cytometry buffer (dissociation buffer supplemented with 0.5% (w/v) BSA) was added, cells were centrifuged for 5 min at +4 °C, 300×g and counted. […]\nIn order to determine to which types of spleen cells mRNA were transfected in vivo, cells collected from the spleens of transfected animals were sorted according to their subtype and the reporter expression measured. mRNA encoding luciferase (mRNA (luc)) was used as a reporter model."}
{"compound": "CCCCCCCCCCCCCCCCCC(=O)N[C@@H](C)C(=O)NCC(=O)N[C@@H](Cc1ccc(O)cc1)C(=O)N[C@@H](CC(C)C)C(=O)N[C@@H](CC(C)C)C(=O)NCC(=O)NCCC[C@H](N)C(=O)N[C@H](C(=O)N[C@@H](CC(N)=O)C(=O)N[C@@H](CC(C)C)C(=O)N[C@@H](CCCCN)C(=O)N[C@@H](C)C(=O)N[C@@H](CC(C)C)C(=O)N[C@@H](C)C(=O)N[C@@H](C)C(=O)N[C@@H](CC(C)C)C(=O)N[C@@H](C)C(=O)N[C@@H](CCCCN)C(=O)N[C@@H](C)C(=O)N[C@H](C(=O)N[C@@H](CC(C)C)C(N)=O)[C@@H](C)CC)[C@@H](C)CC", "note": "[NF55]", "values": [{"measurement": "Reporter signal in spleen cell subtypes", "value": "the majority of the reporter signal arose from the dendritic cells (DCs)"}]}
